From US12349708B2, “Use and methods of 1,3-propanediol to improve taste and/or off-taste qualities” (Primient Covation LLC, priority 2019, dated 2025)
“Also recorded” adds a separate entry of the source.

Columns and labels:
[1] = Taste of juices and yogurts with 1,3-propanediol; type: in vivo
[2] = system: experienced and trained panelist; assay: Sensorial comparison of energy shot prototypes at various malic acid and sucralose levels with and without bioPDO (Example 5); type: in vivo, human; conditions: 0.2% bioPDO; sucralose and malic acid lowered by 32% and 47%
Description: • 1. Take 1st sip from a full 30 mL medicine cup, taste and swallow the 1st sample, wait 10 seconds, then take a 2nd sip and lock it into memory. Wait for 10 seconds. • 2. Proceed with 2nd sample. Taste 1st sip of the 2nd sample, wait for 10 seconds, and then use the 2nd sip to compare to the 2nd sip (or 3rd sip) of the 1st sample.
Each paired sample evaluation was repeated in triplicate with at least a 10-minute break and a carbon-treated water rinse.
The theory is to try to establish a reduced amount (concentration) of malic acid to match its sourness intensity of our energy shot prototype w/bioPDO to the control, energy shot prototype without bioPDO. Secondly, if this adjustment of lowering the malic acid concentration results in increasing sweetness, an additional step will be performed to reduce the amount of sucralose until both sourness and sweetness taste match that of the control w/o bioPDO. Below are the comparative sensorial evaluation results in Tables 33-36 including their specific sample formulations, observations, and results. Keywords of SUL, MA and CAF are sucralose, malic acid, and caffeine, respectively.

[3] = system: experienced and trained panelist; assay: Sensorial description of energy drinks and additive solutions with propylene glycol or biologically-produced 1,3-propanediol (multi-sip-and-swallow taste method); conditions: for Sensorial Description: RT; for increase of sweetness equivalent: with prior DW sipping; for concentration yielding the most consistent reduction in unpleasant taste/masking off-tastes: in vivo; for taste quality of 5-hour ENERGY shots and Bang energy drink: included in 5-hour ENERGY shots and Bang energy drink; for overall tasting quality vs propylene glycol: three additive solutions; for tasting qualities vs propylene glycol: two additive malic acid and sucralose solutions;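 for all read-outs here: propylene glycol or 1,3-propanediol added at 0.01, 0.1 or 1.0%, tasted by multi-sip-and-swallow in duplicate, compared with matching controls lacking either additive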
[4] = system: descriptive panel of 8 panelists; assay: Descriptive analysis of 5HE, BANG and energy shot prototype drinks with and without bioPDO (Example 6); type: in vivo, human; conditions: addition of bioPDO (0.1%)
Description: A formal sensory testing called descriptive analysis (DA) was performed by 8 trained panelists in triplicate (n=24) on energy shot prototype, BANG prototype samples, and 5HE SHOT prototype samples with & without bioPDO. All samples were served to panelists at ambient temperature 20±2° C.
A qualified descriptive panel of 8 panelists, experienced in the sensory analysis of a range of products, was used for this research.
The protocol for descriptive analysis was divided into two distinct phases. 1) During the panel orientation phase, panelists tasted the samples and formulated a lexicon of descriptive taste, mouthfeel, aftertaste and after feel attributes to describe them. A final list of 3 taste, 3 mouthfeel, 3 aftertaste and 1 after feel attributes were determined (Table 37). During the sample testing phase, which took place over 2 separate days, the products were evaluated in triplicate (total evaluations n=24). […]
Following consumption of the 1st sip, panelists assessed the attribute ‘initial harshness mouthfeel’. The remaining attributes (including ‘harshness mouthfeel’) were then measured by panelists on the 2nd sip. Aftertaste/feel attributes were measured 30 seconds after ingestion of the 2nd sip. […]
The sensory attributes of the products were scored on unstructured 10 cm line scales labeled at both ends with extremes of each descriptive term. […]

[5] = PG samples tasted before PDO samples

OCCCO [PDO, 1,3-propanediol]
taste modulation ([1]; Greek yogurt, with vs without): less bitter and sweeter
taste modulation ([1]; Vanilla yogurt, with vs without): less bitter and somewhat sweeter
taste modulation ([1]; cranberry juice): reduced both the bitterness and the sweetness
taste modulation ([1]; grapefruit juice): decrease the bitterness and increase the sweetness
taste modulation ([1]; orange juice, with vs without): less bitter and somewhat sweeter
taste quality effect of 0.2% addition [2]: failed to further improve
Sensorial Description ([3]; 0.01% PG or PDO in 79 ppm sucralose (5% SE) in distilled water): Same as 0.01% PG results.
Sensorial Description ([3]; 0.01% PG or PDO in 2,000 ppm sucralose in distilled water): (small sip): Similar results as 0.01% PG. Direct
Sensorial Description ([3]; 0.01% PG or PDO in 3,338 ppm caffeine in distilled water (caffeine shot)): (small sip): similar to Control #65.
Sensorial Description ([3]; 0.01% PG or PDO in 10,500 ppm malic acid and 2,000 ppm sucralose in distilled water): Little to no sweetness and sourness, similar
Sensorial Description ([3]; 0.01% PG or PDO in 10,500 ppm malic acid, 2,000 ppm sucralose, 3,338 ppm caffeine in distilled water): Significantly less sweet intensity, less and different
Sensorial Description ([3]; 0.01% PG or PDO in B vitamins at 5-hour Energy shot concentrations in distilled water): Slightly different from Control (upfront smooth-like)
Sensorial Description ([3]; 0.01% PG or PDO in Bang energy drink): Still slow onset sourness, less sweetness (more
Sensorial Description ([3]; 0.01% PG or PDO in Berry flavor in distilled water): No dry taste effect, slight less flavor.
Sensorial Description ([3]; 0.01% PG or PDO in Monster Energy Zero Ultra): Significantly less off-taste, still strong sweetness and
Sensorial Description ([3]; 0.01% PG or PDO in Monster Energy drink): Note: Loss of carbonation. No carbonic acid off-
Sensorial Description ([3]; 0.01% PG or PDO in NOS High Performance Energy Drink): Less Sweet, smoother, no off-taste, significant less
Sensorial Description ([3]; 0.01% PG or PDO in Orange 5-hour ENERGY shot (5HE Orange)): Not significantly less flavor, tasted better than
Sensorial Description ([3]; 0.01% PG or PDO in Red Bull Energy Drink): Better taste overall and less off taste than 0.01% PG,
Sensorial Description ([3]; 0.01% PG or PDO in Red Bull Sugar Free): Much better overall tasting quality, significantly less
Sensorial Description ([3]; 0.01% PG or PDO in Rockstar Original energy drink): Slight off-flavor, significantly less sourness, still
increase of sweetness equivalent ([3]; 0.01% in 2,000 ppm sucralose): ~45% more SE.
Sensorial Description ([3]; 0.1% PG or PDO in 238 ppm sucralose (10% SE) in distilled water): Still slightly more sweetness, thinner but still ~9-
Sensorial Description ([3]; 0.1% PG or PDO in 338 ppm caffeine in distilled water (caffeine drink)): Stronger bitterness intensity to medium level.
Sensorial Description ([3]; 0.1% PG or PDO in 2,000 ppm sucralose in distilled water): (small sip): Significantly improved sugar-like tasting
Sensorial Description ([3]; 0.1% PG or PDO in 3,338 ppm caffeine in distilled water (caffeine shot)): (small sip): similar to Control #65.
Sensorial Description ([3]; 0.1% PG or PDO in Bang energy drink): Significantly less sourness and sweetness, smoother,
Sensorial Description ([3]; 0.1% PG or PDO in Berry 5-hour ENERGY shot (5HE Berry)): Significantly better tasting quality than 0.1% PG,
Sensorial Description ([3]; 0.1% PG or PDO in Berry flavor in distilled water): Less dry than 0.01% PDO, slight less flavor.
Sensorial Description ([3]; 0.1% PG or PDO in Monster Energy Zero Ultra): More suitable tasting quality (less than 1% but more
Sensorial Description ([3]; 0.1% PG or PDO in Monster Energy drink): Note: Loss of carbonation. Similar to 0.01% PDO,
Sensorial Description ([3]; 0.1% PG or PDO in Red Bull Energy Drink): Note: Significant loss of carbonation. Still slight-
Sensorial Description ([3]; 0.1% PG or PDO in Red Bull Sugar Free): Flatter than 0.01% PDO, low-med flavor, low-med
increase of sweetness equivalent ([3]; 0.1% in 2,000 ppm sucralose): ~45% more SE.
taste effect at 1% (10,000 ppm) ([3]; 1% / 1.0% (10,000 ppm) in the compositions studied, listed as biologically-produced 1,3-propanediol): sometimes imparted a smoke and/or off-flavor; also recorded: yielded no further improvement in taste perception
Sensorial Description ([3]; 1.0% PG or PDO in 79 ppm sucralose (5% SE) in distilled water): Significant off-flavor note, chemical-like note,
Sensorial Description ([3]; 1.0% PG or PDO in 238 ppm sucralose (10% SE) in distilled water): Off-flavor, thinner-like or chemical-like note,
Sensorial Description ([3]; 1.0% PG or PDO in 338 ppm caffeine in distilled water (caffeine drink)): Off-flavor taste, delayed onset of bitterness.
Sensorial Description ([3]; 1.0% PG or PDO in 2,000 ppm sucralose in distilled water): (small sip): off-flavor chemical-like note (plastic-
Sensorial Description ([3]; 1.0% PG or PDO in 3,338 ppm caffeine in distilled water (caffeine shot)): (small sip): similar to Control #65, slightly
Sensorial Description ([3]; 1.0% PG or PDO in 10,500 ppm malic acid and 2,000 ppm sucralose in distilled water): Weak off-flavor across the taste, similar qualities
Sensorial Description ([3]; 1.0% PG or PDO in 10,500 ppm malic acid in distilled water): No off-flavor for sure, however possible Invisible-
Sensorial Description ([3]; 1.0% PG or PDO in 10,500 ppm malic acid in distilled water, listed as biologically-produced 1,3-propanediol): did not present any expected off-flavor
Sensorial Description ([3]; 1.0% PG or PDO in 10,500 ppm malic acid, 2,000 ppm sucralose, 3,338 ppm caffeine in distilled water): Very weak off-flavor note, thinner sourness, less
Sensorial Description ([3]; 1.0% PG or PDO in B vitamins at 5-hour Energy shot concentrations in distilled water): Slight-medium off-flavor note,
Sensorial Description ([3]; 1.0% PG or PDO in Bang energy drink): Slight and low off-flavor at middle tasting time,
Sensorial Description ([3]; 1.0% PG or PDO in Berry flavor in distilled water): Moderate chemical-like off-flavor at later
Sensorial Description ([3]; 1.0% PG or PDO in Monster Energy Zero Ultra): Smoother, medium off flavor at middle tasting
Sensorial Description ([3]; 1.0% PG or PDO in Monster Energy drink): Note: Little carbonation. Significant undescribed
Sensorial Description ([3]; 1.0% PG or PDO in NOS High Performance Energy Drink): Off-flavor in middle taste, no or low sourness, not
Sensorial Description ([3]; 1.0% PG or PDO in Orange 5-hour ENERGY shot (5HE Orange)): Slight or faint off-flavor in background (non-
Sensorial Description ([3]; 1.0% PG or PDO in Red Bull Energy Drink): Note: significantly less or no carbonation. Significant
reduction in unpleasant taste or masking of off-taste ([3]; 2,000 ppm, 238 ppm, or 70 ppm sucralose in distilled water): No reduction in unpleasant taste, or masking of off-taste
reduction of unpleasant taste / masking of bitterness ([3]; 3,382 ppm or 338 ppm caffeine in distilled water): did not reduce the unpleasant taste, or mask the bitterness
maximum useful concentration ([3]; across a broad range of food, beverage, and confection compositions): 0.5%
taste modulation of B vitamins ([3]; aqueous B vitamins at concentrations comparable to 5-hour ENERGY shots): did not positively modulate
modulation of berry flavor ([3]; berry flavor in distilled water): Neither biologically-produced 1,3-propanediol, nor propylene glycol modulated the flavor
concentration yielding the most consistent reduction in unpleasant taste/masking off-tastes ([3]; listed as bioPDO): ca. 0.1%
concentration yielding the most consistent reduction in unpleasant taste/masking off-tastes ([3]; listed as biologically-produced 1,3-propane diol): about 0.1%
taste quality of 5-hour ENERGY shots and Bang energy drink ([3]; listed as Biologically-produced 1,3-propanediol): improved the taste quality
taste quality of 5-hour ENERGY shots and Bang energy drink ([3]; listed as biologically-produced 1,3-propanediol): positive taste modulation effect of PDO
taste modulation or sour masking ([3]; malic acid at 10,500 ppm in distilled water): no positive taste modulation or sour masking effect
taste modulation of three additive solution ([3]; malic acid, sucralose and caffeine at 5-hour ENERGY concentrations in distilled water, compared to solution with propylene glycol): positive taste modulation, or a reduction of unpleasant tastes
taste modulation of single additive solutions ([3]; separate caffeine, malic acid, and sucralose solutions at mega-dose levels, listed as biologically-produced 1,3-propanediol): did not positively modulate the taste or mask the bitter, off, or sour tastes; also recorded: neither propylene glycol, nor biologically-produced 1,3-propanediol modulated the taste
taste modulation of two additive solutions ([3]; solutions containing a blend of two taste additives): most positive taste modulation effect
overall tasting quality vs propylene glycol ([3]; PDO samples tasted before PG samples, similar levels): better overall tasting quality
overall tasting quality vs propylene glycol [3, 5]: no tasting quality differences
tasting qualities vs propylene glycol [3, 5]: tasted marginally better than the propylene glycol-containing samples
tasting qualities vs propylene glycol ([3]; direct comparison of PDO to PG): better tasting qualities than those with propylene glycol
overall taste quality of energy shots/drink [4]: significantly improves overall taste quality
